According to article PMC2879341 (Chembiochem : a European journal of chemical biology, 2009):

Target: T1, GilR (Streptomyces griseoflavus, UniProt Q7X2G7)
T1 sequence (Q7X2G7 1-498): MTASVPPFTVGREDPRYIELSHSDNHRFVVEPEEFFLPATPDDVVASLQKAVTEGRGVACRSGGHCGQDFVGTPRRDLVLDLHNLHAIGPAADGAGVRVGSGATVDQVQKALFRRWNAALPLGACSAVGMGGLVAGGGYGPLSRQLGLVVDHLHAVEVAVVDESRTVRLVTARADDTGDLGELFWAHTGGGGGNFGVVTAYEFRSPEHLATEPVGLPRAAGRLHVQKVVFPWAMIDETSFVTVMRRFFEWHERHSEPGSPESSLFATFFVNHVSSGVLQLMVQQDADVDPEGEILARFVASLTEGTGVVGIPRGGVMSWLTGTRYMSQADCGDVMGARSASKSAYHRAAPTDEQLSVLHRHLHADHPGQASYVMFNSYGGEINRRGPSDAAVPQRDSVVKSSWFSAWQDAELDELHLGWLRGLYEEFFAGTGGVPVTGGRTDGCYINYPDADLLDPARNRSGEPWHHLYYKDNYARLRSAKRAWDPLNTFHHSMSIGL
Experiment: UV spectrum of purified protein
Assay type: binding
Details: covalent

Cc1cc2nc3c(=O)[nH]c(=O)nc-3n(C[C@H](O)[C@H](O)[C@H](O)COP(=O)(O)OP(=O)(O)OC[C@H]3O[C@@H](n4cnc5c(N)ncnc54)[C@H](O)[C@@H]3O)c2cc1C [FAD]
UV spectrum of purified protein; further analysis in supplement: FAD in fact is covalently bound to the enzyme (see the Supporting Information)
